Data reported in ChEMBL document CHEMBL1127776, “Stereospecific synthesis of a pentopyranosyl analogue of d4T monophosphate” (Bioorg Med Chem Lett, 1994).
Activity calls are given as the source filed them.

How the values were obtained:
Assay type in all cases: functional, cell-based
Settings in all cases: Homo sapiens
CCRF-CEM [1] = experiment: Compound was tested for toxicity to the CEM cell monolayers; No toxicity
CCRF-CEM [2] = experiment: Compound was tested for the inhibition of HIV-1 replication in CEM cell culture up to 100 ug/mL concentration; Not active
CCRF-CEM [3] = experiment: Compound was tested for the inhibition of HIV-2 replication in CEM cell culture up to 100 ug/mL concentration; Not active

Cc1cn(C2C=CC(OCP(=O)(O)O)CO2)c(=O)[nH]c1=O (stereo not drawn)
inactive: Toxicity (CCRF-CEM [1]) Not toxic | inhibition (CCRF-CEM [2]) | inhibition (CCRF-CEM [3])
